# Assay results from PMC9699427 (Viruses, 2022).
# Legend:
# [1] = Cytotoxicity, MTT assay, C8166 cells; assay type: cell-based; conditions: human, three days, read-out: CC50 (Mean ± SD)
# [2] = Cytotoxicity, MTT assay, MT-4 cells; assay type: cell-based; conditions: human, three days, read-out: CC50 (Mean ± SD)
# [3] = Cytotoxicity, MTT assay, H9/HIV-1IIIB cells; assay type: cell-based; conditions: human, three days, read-out: CC50 (Mean ± SD)
# [4] = Cytotoxicity, MTT assay, PBMCs; assay type: cell-based; conditions: human, PBMC, seven days, read-out: CC50 (Mean ± SD)
# HIV-1IIIB [5] = test: Anti-HIV-1 activity, MTT protection of MT-4 cells; assay type: cell-based; conditions: Human immunodeficiency virus 1, MT4, MT-4, MTT
# [6] = tested on: HIV-1IIIB chronically infected H9 cells; test: HIV-1 replication in chronically infected H9/HIV-1IIIB cells, p24; assay type: cell-based
# HIV-1Yu-2(G140S/Q148H) = test: microbe, parasite or virus in culture; assay type: cell-based; conditions: Human immunodeficiency virus 1, TZM-bl
# [7] = tested on: C8166 cells infected with HIV-1IIIB or TZM-bl cells infected with HIV-1YU-2; test: Combination antiviral activity assay (CompuSyn CI and DRI); assay type: cell-based
# CYP3A4M = CYP3A4M (Homo sapiens, UniProt P08684); test: Cytochrome P450 inhibition, human liver microsomes, midazolam
# Sequence of CYP3A4M (P08684 whole entry): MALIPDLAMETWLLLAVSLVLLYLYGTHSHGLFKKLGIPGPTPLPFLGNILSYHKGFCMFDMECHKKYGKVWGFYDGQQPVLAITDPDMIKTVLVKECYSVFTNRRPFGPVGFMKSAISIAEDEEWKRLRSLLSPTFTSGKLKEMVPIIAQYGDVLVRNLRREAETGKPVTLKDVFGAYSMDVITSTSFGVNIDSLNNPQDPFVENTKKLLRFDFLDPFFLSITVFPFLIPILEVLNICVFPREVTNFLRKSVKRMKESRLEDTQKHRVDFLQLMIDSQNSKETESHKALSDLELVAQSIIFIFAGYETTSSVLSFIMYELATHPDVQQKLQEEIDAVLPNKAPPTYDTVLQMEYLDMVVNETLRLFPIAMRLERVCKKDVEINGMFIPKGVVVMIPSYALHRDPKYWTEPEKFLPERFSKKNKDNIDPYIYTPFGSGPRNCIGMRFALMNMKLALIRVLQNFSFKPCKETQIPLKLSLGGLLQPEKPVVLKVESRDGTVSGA
# CYP1A2 = target: T1, CYP1A2 (Homo sapiens, UniProt P05177); test: Cytochrome P450 inhibition, human liver microsomes, phenacetin
# T1 sequence (P05177 1-516): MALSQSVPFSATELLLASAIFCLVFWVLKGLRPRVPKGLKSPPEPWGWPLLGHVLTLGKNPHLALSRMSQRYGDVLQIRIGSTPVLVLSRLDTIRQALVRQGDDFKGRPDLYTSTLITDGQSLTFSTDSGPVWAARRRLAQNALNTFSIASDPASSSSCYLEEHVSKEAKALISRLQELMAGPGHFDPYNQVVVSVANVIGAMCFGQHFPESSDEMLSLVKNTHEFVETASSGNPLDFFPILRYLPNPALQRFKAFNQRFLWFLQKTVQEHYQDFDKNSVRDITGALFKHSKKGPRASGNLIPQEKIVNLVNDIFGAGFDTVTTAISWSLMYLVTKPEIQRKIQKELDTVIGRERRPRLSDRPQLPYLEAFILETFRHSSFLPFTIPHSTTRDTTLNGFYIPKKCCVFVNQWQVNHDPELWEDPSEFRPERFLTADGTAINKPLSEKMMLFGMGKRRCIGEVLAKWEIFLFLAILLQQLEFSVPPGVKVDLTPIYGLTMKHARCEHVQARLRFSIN
# CYP2C9 = CYP2C9 (Homo sapiens, UniProt P11712); test: Cytochrome P450 inhibition, human liver microsomes, diclofenac
# Sequence of CYP2C9 (P11712 whole entry): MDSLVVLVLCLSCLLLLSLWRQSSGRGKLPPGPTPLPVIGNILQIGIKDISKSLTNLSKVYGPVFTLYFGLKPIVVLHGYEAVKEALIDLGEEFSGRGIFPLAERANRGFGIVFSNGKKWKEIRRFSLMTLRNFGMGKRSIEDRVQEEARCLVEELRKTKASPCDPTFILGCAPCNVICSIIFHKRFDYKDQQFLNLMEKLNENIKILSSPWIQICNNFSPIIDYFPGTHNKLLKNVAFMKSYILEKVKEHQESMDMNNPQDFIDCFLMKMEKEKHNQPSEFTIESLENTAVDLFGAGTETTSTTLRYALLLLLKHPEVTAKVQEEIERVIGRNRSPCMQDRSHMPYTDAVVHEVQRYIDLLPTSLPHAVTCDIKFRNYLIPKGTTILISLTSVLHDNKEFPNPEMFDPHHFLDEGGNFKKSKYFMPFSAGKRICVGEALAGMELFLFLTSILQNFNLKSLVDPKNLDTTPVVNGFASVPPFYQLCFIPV
# HIV-1IIIB [8] = test: Anti-HIV-1 activity in the presence of human serum, p24 in C8166; conditions: Human immunodeficiency virus 1, C8166, HIV-1IIIB
# CYP2C19 = CYP2C19 (Homo sapiens, UniProt P33261); test: Cytochrome P450 inhibition, human liver microsomes, S-mephenytoin
# Sequence of CYP2C19 (P33261 whole entry): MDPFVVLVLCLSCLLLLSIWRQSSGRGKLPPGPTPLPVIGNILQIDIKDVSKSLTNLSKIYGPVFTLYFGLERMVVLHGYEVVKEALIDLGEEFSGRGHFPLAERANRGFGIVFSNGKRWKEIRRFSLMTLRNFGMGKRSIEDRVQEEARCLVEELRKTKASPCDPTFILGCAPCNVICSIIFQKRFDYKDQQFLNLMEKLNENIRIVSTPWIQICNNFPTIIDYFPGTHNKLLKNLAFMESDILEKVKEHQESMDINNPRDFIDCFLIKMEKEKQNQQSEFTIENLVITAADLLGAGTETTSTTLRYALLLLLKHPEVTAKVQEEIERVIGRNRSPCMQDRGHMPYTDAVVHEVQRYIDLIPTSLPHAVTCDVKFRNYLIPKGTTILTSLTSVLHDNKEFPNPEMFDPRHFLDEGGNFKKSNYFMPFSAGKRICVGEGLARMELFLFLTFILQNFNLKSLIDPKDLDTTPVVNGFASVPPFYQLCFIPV
# CYP2D6 = CYP2D6 (Homo sapiens, UniProt P10635); test: Cytochrome P450 inhibition, human liver microsomes, dextromethorphan
# Sequence of CYP2D6 (P10635 whole entry): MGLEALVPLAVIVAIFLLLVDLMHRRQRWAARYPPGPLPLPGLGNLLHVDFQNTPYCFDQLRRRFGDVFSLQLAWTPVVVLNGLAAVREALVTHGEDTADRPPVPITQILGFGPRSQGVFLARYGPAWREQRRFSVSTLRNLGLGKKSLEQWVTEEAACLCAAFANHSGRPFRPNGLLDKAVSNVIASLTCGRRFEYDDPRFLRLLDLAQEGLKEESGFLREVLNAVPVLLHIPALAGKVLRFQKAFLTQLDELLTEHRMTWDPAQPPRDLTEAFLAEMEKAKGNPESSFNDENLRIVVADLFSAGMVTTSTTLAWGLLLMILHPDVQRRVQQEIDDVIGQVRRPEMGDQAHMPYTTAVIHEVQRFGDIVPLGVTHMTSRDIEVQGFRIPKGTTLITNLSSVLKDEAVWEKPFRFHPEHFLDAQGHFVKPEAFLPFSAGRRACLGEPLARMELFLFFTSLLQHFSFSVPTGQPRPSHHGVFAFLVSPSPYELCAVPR
# [9] = single drug in combination K-5a2+3TC
# [10] = single drug in combination K-5a2+AZT
# [11] = single drug in combination K-5a2+DC521022
# [12] = single drug in combination K-5a2+DRV
# [13] = single drug in combination K-5a2+DTG
# [14] = single drug in combination K-5a2+ETR
# [15] = single drug in combination K-5a2+FTC
# [16] = single drug in combination K-5a2+MVC
# [17] = single drug in combination K-5a2+RAL
# [18] = single drug in combination K-5a2+T-20
# [19] = single drug in combination K-5a2+TDF
structure (smiles),measurement,setting,value
Cc1cc(C#N)cc(C)c1Oc1nc(NC2CCN(Cc3ccc(S(N)(=O)=O)cc3)CC2)nc2ccsc12 [K-5a2],CC50 at 3 days,[1],> 50 µM
same,CC50 at 3 days,[2],26.6 ± 2.03 µM
same,CC50 at 3 days,[3],28.1 ± 5.03 µM
same,CC50 at 7 days,[4],39.7 ± 6.29 µM
same,EC50,HIV-1IIIB [5],0.00174 ± 0.00011 µM
same,EC50,"[6]; Human immunodeficiency virus 1, HIV-1IIIB, H9/HIV-1IIIB chronically infected, p24",> 50 µM
same,Inhibition of HIV-1 replication in HIV-1IIIB chronically infected H9 cells,[6]; at a concentration of 50.00 µM,could not inhibit the replication
same,EC50,HIV-1Yu-2(G140S/Q148H),0.00026 ± 0.00028 µM
same,DRI Value ED75,[7]; [9],2.79 ± 0.14
same,DRI Value ED90,[7]; [9],2.81 ± 0.58
same,DRI Value ED95,[7]; [9],2.85 ± 0.93
same,DRI Value ED75,[7]; [10],13.26 ± 9.86
same,DRI Value ED90,[7]; [10],7.60 ± 3.58
same,DRI Value ED95,[7]; [10],5.48 ± 2.08
same,DRI Value ED75,[7]; [11],1.61 ± 0.50
same,DRI Value ED90,[7]; [11],1.71 ± 0.48
same,DRI Value ED95,[7]; [11],1.78 ± 0.47
same,DRI Value ED75,[7]; [12],2.26 ± 0.28
same,DRI Value ED90,[7]; [12],2.57 ± 0.19
same,DRI Value ED95,[7]; [12],2.85 ± 0.57
same,DRI Value ED75,[7]; [13],1.69 ± 0.37
same,DRI Value ED90,[7]; [13],1.94 ± 0.10
same,DRI Value ED95,[7]; [13],2.19 ± 0.50
same,DRI Value ED75,[7]; [14],1.47 ± 0.24
same,DRI Value ED90,[7]; [14],1.40 ± 0.12
same,DRI Value ED95,[7]; [14],1.35 ± 0.07
same,DRI Value ED75,[7]; [15],5.00 ± 0.71
same,DRI Value ED90,[7]; [15],3.58 ± 0.51
same,DRI Value ED95,[7]; [15],2.85 ± 0.41
same,DRI Value ED75,[7]; [16],1.30 ± 0.17
same,DRI Value ED90,[7]; [16],1.28 ± 0.15
same,DRI Value ED95,[7]; [16],1.27 ± 0.15
same,DRI Value ED75,[7]; [17],2.45 ± 0.95
same,DRI Value ED90,[7]; [17],2.47 ± 0.85
same,DRI Value ED95,[7]; [17],2.49 ± 0.79
same,DRI Value ED75,[7]; [18],5.13 ± 0.38
same,DRI Value ED90,[7]; [18],4.68 ± 0.43
same,DRI Value ED95,[7]; [18],4.43 ± 0.75
same,DRI Value ED75,[7]; [19],2.30 ± 0.73
same,DRI Value ED90,[7]; [19],2.15 ± 0.47
same,DRI Value ED95,[7]; [19],2.06 ± 0.33
same,IC50,CYP3A4M,18.9 µM
same,IC50,CYP1A2,> 50 µM
same,IC50,CYP2C9,> 50 µM
same,EC50,"HIV-1IIIB [8]; C8166, p24, 20% human serum",0.00783 ± 0.00173 µM
same,EC50,"HIV-1IIIB [8]; C8166, p24, 40% human serum",0.00787 ± 0.00601 µM
same,IC50,CYP2C19,> 50 µM
same,IC50,CYP2D6,> 50 µM
